From ChEMBL document CHEMBL1127102, “Structure-activity relationships of 2,3-benzodiazepine compounds with glutamate antagonistic action” (Bioorg Med Chem Lett, 1993)

Experiments:
Mus musculus [1] = test: Tested in vivo for anticonvulsant activity using MES, MMS and IS relative potency compared to GYKI 52466; assay type: functional
Rattus norvegicus [2] = species: Rattus norvegicus; test: Tested in vitro for the relative potency against neuronal responses mediated by the non-NMDA type glutamate receptor compared to GYKI 52466; assay type: functional
Rattus norvegicus [3] = species: Rattus norvegicus; test: Tested in vitro for the anticonvulsant activity (IC50 value was determined after 30 min perfusion application by MES test); assay type: functional, organism-based; conditions: 0.5 h
Mus musculus [4] = test: Tested in vivo for the anticonvulsant activity by MES test. 95% confidence limits are in brackets; assay type: functional
Mus musculus [5] = test: Tested in vivo for the anticonvulsant activity by IS test.; assay type: functional
Mus musculus [6] = test: Tested in vivo for the anticonvulsant activity by MMS test. 95% confidence limits are in brackets; assay type: functional
Mus musculus [7] = test: Tested in vivo for the oral anticonvulsant activity by MES test; assay type: functional
Mus musculus [8] = species: Mus musculus; test: Tested in vitro for the oral anticonvulsant activity by MES test; assay type: functional, organism-based

Row | SMILES | Relative potency (Mus musculus [1]) | Relative potency (Rattus norvegicus [2]) | further results
1 | CC1Cc2cc3c(cc2C(c2ccc(N)cc2)=NN1C=O)OCO3 (centres undefined) | 1.72 | 0.44 | 
2 | CNCC(=O)N1N=C(c2ccc(N)cc2)c2cc3c(cc2CC1C)OCO3 (centres undefined) | 0 | 0.02 | 
3 | CC1Cc2cc3c(cc2C(c2ccc(N)cc2)=NN1C(=O)C1CC1)OCO3 (centres undefined) | 1.66 | 1.48 | 
4 | COCC(=O)N1N=C(c2ccc(N)cc2)c2cc3c(cc2CC1C)OCO3 (centres undefined) | 1.02 |  | 
5 | CC1Cc2cc3c(cc2C(c2ccc(N)cc2)=NN1C(=O)CC#N)OCO3 (centres undefined) | 0.21 |  | 
6 | CC1=NN=C(c2ccc(N)cc2)c2cc3c(cc2C1)OCO3 [GYKI-52466] |  |  | IC50 (Rattus norvegicus [3]): 29.5 µM; ED50 (Mus musculus [4]): 30.6 mg/kg; ED50 (Mus musculus [5]): 45.1 mg/kg; ED50 (Mus musculus [6]): 107 mg/kg
7 | CC1Cc2cc3c(cc2C(c2ccc(N)cc2)=NN1C(=O)CN)OCO3 (centres undefined) | 0 | 0.1 | 
8 | CC(N)C(=O)N1N=C(c2ccc(N)cc2)c2cc3c(cc2CC1C)OCO3 (centres undefined) | 0.08 | 0 | 
9 | CC1Cc2cc3c(cc2C(c2ccc(N)cc2)=NN1C(=O)Cc1ccccc1)OCO3 (centres undefined) | 0 |  | 
10 | CC1Cc2cc3c(cc2C(c2ccc(N)cc2)=NN1C(=O)C(C)(C)C)OCO3 (centres undefined) | 0 |  | 
11 | CC1Cc2cc3c(cc2C(c2ccc(N)cc2)=NN1C(=O)c1ccccc1)OCO3 (centres undefined) | 0 |  | 
12 | CNC(=O)N1N=C(c2ccc(N)cc2)c2cc3c(cc2CC1C)OCO3 (centres undefined) [GYKI-53655] | 4.39 | 2.46 | ED50 (Mus musculus [7]): 8.4 mg/kg; IC50 (Mus musculus [8]): 12 µM
13 | CC1Cc2cc3c(cc2C(c2ccc(N)cc2)=NN1C(=O)CN(C)C)OCO3 (centres undefined) | 0 |  | 
14 | CCCCNC(=O)N1N=C(c2ccc(N)cc2)c2cc3c(cc2CC1C)OCO3 (centres undefined) | 0.35 | 0.65 | 
15 | CCC(=O)N1N=C(c2ccc(N)cc2)c2cc3c(cc2CC1C)OCO3 (centres undefined) | 2.55 | 1.55 | 
16 | CC1Cc2cc3c(cc2C(c2ccc(N)cc2)=NN1C(=O)Nc1ccccc1)OCO3 (centres undefined) | 0.13 |  | 
17 | CC1Cc2cc3c(cc2C(c2ccc(N)cc2)=NN1C(=O)C(F)(F)F)OCO3 (centres undefined) | 0 |  | 
18 | CCCCC(=O)N1N=C(c2ccc(N)cc2)c2cc3c(cc2CC1C)OCO3 (centres undefined) | 0 | 0.22 | 
19 | CC(=O)N1N=C(c2ccc(N)cc2)c2cc3c(cc2C[C@H]1C)OCO3 [TALAMPANEL] | 2.74 | 1.12 | 
